For orientation: IC50 means the point on the concentration scale where inhibition reaches its midpoint.

Like-named read-outs stand apart in the source and are kept apart here. Where only a bound is given, the exact number is not on record here.

Drawing on patent US20220356186A1, “PERK INHIBITING PYRROLOPYRIMIDINE COMPOUNDS” (HiberCell, Inc., priority 2019, published 2022), this text covers IC50 for 24 compounds.

Test [1] concerns the target T1, EIF2AK3 (PERK) catalytic domain (amino acids 536-1116) (Homo sapiens, UniProt Q9NZJ5).
T1 construct: EIF2AK3 (PERK) catalytic domain (amino acids 536-1116)
T1 sequence (Q9NZJ5 536-1116): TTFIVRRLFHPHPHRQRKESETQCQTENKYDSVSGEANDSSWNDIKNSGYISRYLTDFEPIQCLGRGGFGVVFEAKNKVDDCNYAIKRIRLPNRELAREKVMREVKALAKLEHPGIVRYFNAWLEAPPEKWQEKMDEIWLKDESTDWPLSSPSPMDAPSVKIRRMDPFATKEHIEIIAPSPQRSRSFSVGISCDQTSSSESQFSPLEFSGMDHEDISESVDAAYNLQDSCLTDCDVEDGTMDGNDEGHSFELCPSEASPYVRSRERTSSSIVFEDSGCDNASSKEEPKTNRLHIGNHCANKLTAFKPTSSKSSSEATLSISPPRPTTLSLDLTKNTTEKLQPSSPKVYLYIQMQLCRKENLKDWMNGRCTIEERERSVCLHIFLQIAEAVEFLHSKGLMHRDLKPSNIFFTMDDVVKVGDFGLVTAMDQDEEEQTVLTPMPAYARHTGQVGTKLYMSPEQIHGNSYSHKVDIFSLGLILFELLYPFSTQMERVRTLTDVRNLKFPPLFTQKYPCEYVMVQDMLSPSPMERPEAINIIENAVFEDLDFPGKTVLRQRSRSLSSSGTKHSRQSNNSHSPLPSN
The test is described as follows: PERK in vitro activity assay (isolated), TR-FRET kinase assay. The test is classed as biochemical. The settings on record: isolated PERK enzyme, 1.5 μM ATP; read-out: Biochemical IC50. A digest of the protocol: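 Human PERK catalytic domain (aa 536-1116) phosphorylating 100-200 nM GFP-eIF2a in 50 mM HEPES pH 7.5, 10 mM MgCl2, 1 mM EGTA, 0.01% Brij-35; enzyme-started, 45 min at room temperature. Stopped with 10 mM EDTA, 2 nM Tb-anti-phospho-eIF2a added for 90 min; IC50 from TR-FRET ratios by 4-parameter logistic fit.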
A general note: Time-resolved FRET reads energy transfer from a long-lived donor to a nearby acceptor.

The test system of test [2] is GFP-eIF2α in HEK293 cells. The test can be described thus: PERK cellular assay, TR-FRET in HEK293-EGFP-eIF2a cells after tunicamycin-induced ER stress. The test is classed as cell-based. The settings on record: HEK293-EGFP-eIF2a cells, tunicamycin 2 hours, read-out: Cellular eIF2α IC50. A digest of the protocol: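 HEK293 cells stably expressing GFP-eIF2α, plated 5000 cells/well overnight, pretreated with inhibitors 30 min at 37 °C, then ER stress induced with tunicamycin […] for 2 h.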

Regarding `Cc1nc(N)c2c(-c3ccc(NC(=O)C(O)c4cccc(F)c4)c(F)c3F)cn(C)c2n1` (single isomer, unassigned) [Example 110, N-(4-(4-amino-2,7-dimethyl-7H-pyrrolo[2,3-d]pyrimidin-5-yl)-2,3-difluorophenyl)-2-(3-fluorophenyl)-2-hydroxyacetamide], the IC50 in test [1] and in test [2] was 1 to 25 nM in each case.

In the case of `Cc1nc(N)c2c(-c3ccc(NC(=O)C(O)c4cc(F)cc(F)c4)cc3F)cn(C)c2n1` (stereo not drawn) [Example 83, N-(4-(4-amino-2,7-dimethyl-7H-pyrrolo[2,3-d]pyrimidin-5-yl)-3-fluorophenyl)-2-(3,5-difluorophenyl)-2-hydroxyacetamide], the IC50 in test [1] and in test [2] was 1 to 25 nM throughout.

Turning to `Cc1nc(N)c2c(-c3ccc(NC(=O)C(O)c4cccc(F)c4)cc3)cn(C)c2n1` (stereo not drawn) [Example 24, N-(4-(4-amino-2,7-dimethyl-7H-pyrrolo[2,3-d]pyrimidin-5-yl)phenyl)-2-(3-fluorophenyl)-2-hydroxyacetamide], the IC50 in test [1] lay within 26 to 50 nM; in test [2], 1000 to 2000 nM.

In the case of `Cc1cccc(C(O)C(=O)Nc2ccc(-c3cn(C)c4nc(C)nc(N)c34)c(C)c2)c1` (stereo not drawn) [Example 42, N-(4-(4-amino-2,7-dimethyl-7H-pyrrolo[2,3-d]pyrimidin-5-yl)-3-methylphenyl)-2-hydroxy-2-(m-tolyl)acetamide], the IC50 was in the range of 1 to 25 nM in test [1] and 51 to 100 nM in test [2] (Homo sapiens, HEK293, 2 h).

Consider `Cc1nc(N)c2c(-c3ccc(NC(=O)C(O)c4cccc(F)c4)cc3F)cn(C)c2n1` (stereo not drawn) [Example 80, N-(4-(4-amino-2,7-dimethyl-7H-pyrrolo[2,3-d]pyrimidin-5-yl)-3-fluorophenyl)-2-(3-fluorophenyl)-2-hydroxyacetamide], for which the values for the IC50 in test [1] and in test [2] were 1 to 25 nM and 26 to 50 nM, respectively.

For `Cc1cc(NC(=O)Cc2ccc3ccccc3c2)ccc1-c1cn(C)c2ncnc(N)c12` [Example 152, N-(4-(4-amino-7-methyl-7H-pyrrolo[2,3-d]pyrimidin-5-yl)-3-methylphenyl)-2-(naphthalen-2-yl)acetamide], the IC50 in test [1] is 1 to 25 nM; in test [2] (Homo sapiens, HEK293, 2 h), 51 to 100 nM.

On to `Cn1cc(-c2ccc(NC(=O)C(O)c3cccc(F)c3)cc2Cl)c2c(N)ncnc21` (stereo not drawn) [Example 15, N-(4-(4-amino-7-methyl-7H-pyrrolo[2,3-d]pyrimidin-5-yl)-3-chlorophenyl)-2-(3-fluorophenyl)-2-hydroxyacetamide], for which the values for the IC50 in test [1] and in test [2] were 26 to 50 nM and 51 to 100 nM, respectively.

For the compound `Cc1cc(F)cc(C(O)C(=O)Nc2ccc(-c3cn(C)c4nc(C)nc(N)c34)c(F)c2)c1` (stereo not drawn) [Example 85, N-(4-(4-amino-2,7-dimethyl-7H-pyrrolo[2,3-d]pyrimidin-5-yl)-3-fluorophenyl)-2-(3-fluoro-5-methylphenyl)-2-hydroxyacetamide], the IC50 in test [1] and in test [2] was 1 to 25 nM throughout.

For the compound `Cc1ccc(CC(=O)Nc2ccc(-c3cn(C)c4ncnc(N)c34)c(C)c2)cc1` [Example 144, N-(4-(4-amino-7-methyl-7H-pyrrolo[2,3-d]pyrimidin-5-yl)-3-methylphenyl)-2-(p-tolyl)acetamide], the IC50 in test [1] lay in the range of 1 to 25 nM; in test [2] (Homo sapiens, HEK293, 2 h), 101 to 250 nM.

`Cc1nc(N)c2c(-c3ccc(NC(=O)C(O)c4ccccc4C)cc3Cl)cn(C)c2n1` (stereo not drawn) [Example 93, N-(4-(4-amino-2,7-dimethyl-7H-pyrrolo[2,3-d]pyrimidin-5-yl)-3-chlorophenyl)-2-hydroxy-2-(o-tolyl)acetamide]: the results for the IC50 in test [1] and in test [2] were 501 to 1000 nM and 2000 to 3000 nM, respectively.

Turning to `Cc1cc(NC(=O)Cc2cccc3ncccc23)ccc1-c1cn(C)c2ncnc(N)c12` [Example 154, N-(4-(4-amino-7-methyl-7H-pyrrolo[2,3-d]pyrimidin-5-yl)-3-methylphenyl)-2-(quinolin-5-yl)acetamide], the IC50 in test [1] was 51 to 100 nM; in test [2] (Homo sapiens, HEK293, 2 h), 501 to 1000 nM.

For `Cc1nc(N)c2c(-c3ccc(NC(=O)C(O)c4cccc(F)c4)nc3C)cn(C)c2n1` (stereo not drawn) [Example 128, N-(5-(4-amino-2,7-dimethyl-7H-pyrrolo[2,3-d]pyrimidin-5-yl)-6-methylpyridin-2-yl)-2-(3-fluorophenyl)-2-hydroxyacetamide], the IC50 in test [1] is 501 to 1000 nM; in test [2], greater than 5000 nM.

For `COc1cc(NC(=O)C(O)c2cccc(F)c2)ccc1-c1cn(C)c2nc(C)nc(N)c12` (single isomer, unassigned) [Example 105, N-(4-(4-amino-2,7-dimethyl-7H-pyrrolo[2,3-d]pyrimidin-5-yl)-3-methoxyphenyl)-2-(3-fluorophenyl)-2-hydroxyacetamide], the IC50 in test [1] and in test [2] was greater than 5000 nM each time.

As for `Cc1ccccc1CC(=O)Nc1ccc(-c2cn(C)c3ncnc(N)c23)c(C)c1` [Example 142, N-(4-(4-amino-7-methyl-7H-pyrrolo[2,3-d]pyrimidin-5-yl)-3-methylphenyl)-2-(o-tolyl)acetamide], the IC50 in test [1] fell in the range of 1 to 25 nM; in test [2] (Homo sapiens, HEK293, 2 h), 26 to 50 nM.

As for `Cc1cccc(CC(=O)Nc2ccc(-c3cn(C)c4ncnc(N)c34)c(C)c2)n1` [Example 136, N-(4-(4-amino-7-methyl-7H-pyrrolo[2,3-d]pyrimidin-5-yl)-3-methylphenyl)-2-(6-methylpyridin-2-yl)acetamide], the IC50 in test [1] fell in the range of 1 to 25 nM; in test [2] (Homo sapiens, HEK293, 2 h), 1 to 25 nM.

With `Cc1cc(NC(=O)CCc2ccccc2)ccc1-c1cn(C)c2ncnc(N)c12` [Example 168, N-(4-(4-amino-7-methyl-7H-pyrrolo[2,3-d]pyrimidin-5-yl)-3-methylphenyl)-3-phenylpropanamide], the IC50 in test [1] lay within 101 to 250 nM; in test [2] (Homo sapiens, HEK293, 2 h), 1000 to 2000 nM.

For `CCc1cc(F)cc(C(O)C(=O)Nc2ccc(-c3cn(C)c4nc(C)nc(N)c34)c(C)c2)c1` (stereo not drawn) [Example 59, N-(4-(4-amino-2,7-dimethyl-7H-pyrrolo[2,3-d]pyrimidin-5-yl)-3-methylphenyl)-2-(3-ethyl-5-fluorophenyl)-2-hydroxyacetamide], the results for the IC50 in test [1] and in test [2] were 51 to 100 nM and 251 to 500 nM, respectively.

As for `Cc1nc(N)c2c(-c3ccc(NC(=O)C(O)c4cc(F)cc(C(F)(F)F)c4)cc3F)cn(C)c2n1` (stereo not drawn) [Example 88, N-(4-(4-amino-2,7-dimethyl-7H-pyrrolo[2,3-d]pyrimidin-5-yl)-3-fluorophenyl)-2-(3-fluoro-5-(trifluoromethyl)phenyl)-2-hydroxyacetamide], the figures for the IC50 in test [1] and in test [2] were 26 to 50 nM and 251 to 500 nM, respectively.

As for `Cc1nc(N)c2c(-c3ccc(NC(=O)C(O)c4cc(F)cc(F)c4)c(F)c3F)cn(C)c2n1` (single isomer, unassigned) [Example 113, N-(4-(4-amino-2,7-dimethyl-7H-pyrrolo[2,3-d]pyrimidin-5-yl)-2,3-difluorophenyl)-2-(3,5-difluorophenyl)-2-hydroxyacetamide], the IC50 in test [1] and in test [2] was 1 to 25 nM throughout.

As for `Cc1cc(NC(=O)Cc2ccccc2C(F)(F)F)ccc1-c1cn(C)c2ncnc(N)c12` [Example 157, N-(4-(4-amino-7-methyl-7H-pyrrolo[2,3-d]pyrimidin-5-yl)-3-methylphenyl)-2-(2-(trifluoromethyl)phenyl)acetamide], the IC50 lay within 1 to 25 nM in test [1] and 51 to 100 nM in test [2] (Homo sapiens, HEK293, 2 h).

As to `Cc1nc(N)c2c(-c3ccc(NC(=O)C(O)c4cc(F)cc(F)c4)c(F)c3F)cn(C)c2n1` (single isomer, unassigned) [Example 114, N-(4-(4-amino-2,7-dimethyl-7H-pyrrolo[2,3-d]pyrimidin-5-yl)-2,3-difluorophenyl)-2-(3,5-difluorophenyl)-2-hydroxyacetamide], the IC50 was in the range of 251 to 500 nM in test [1] and 1000 to 2000 nM in test [2].

Turning to `Cc1cccc(C(O)C(=O)Nc2ccc(-c3cn(C)c4ncnc(N)c34)c(C)c2)n1` (stereo not drawn) [Example 60, N-(4-(4-amino-7-methyl-7H-pyrrolo[2,3-d]pyrimidin-5-yl)-3-methylphenyl)-2-hydroxy-2-(6-methylpyridin-2-yl)acetamide], the IC50 in test [1] is 1 to 25 nM; in test [2] (Homo sapiens, HEK293, 2 h), 101 to 250 nM.

Regarding `CCc1cccc(C(O)C(=O)Nc2ccc(-c3cn(C)c4nc(C)nc(N)c34)c(F)c2)c1` (stereo not drawn) [Example 75, N-(4-(4-amino-2,7-dimethyl-7H-pyrrolo[2,3-d]pyrimidin-5-yl)-3-fluorophenyl)-2-(3-ethylphenyl)-2-hydroxyacetamide], the IC50 was in the range of 51 to 100 nM in test [1] and 1000 to 2000 nM in test [2].

Regarding `Cc1nc(N)c2c(-c3cc(F)c(NC(=O)C(O)c4cccc(F)c4)cc3C)cn(C)c2n1` (single isomer, unassigned) [Example 122, N-(4-(4-amino-2,7-dimethyl-7H-pyrrolo[2,3-d]pyrimidin-5-yl)-2-fluoro-5-methylphenyl)-2-(3-fluorophenyl)-2-hydroxyacetamide], the IC50 is 101 to 250 nM in test [1] and 1000 to 2000 nM in test [2].
